Experimental data from USRE39125E1, “Swallowing-assistive drink” (Ryukakusan Co. LTD, priority 2000, dated 2006).

Experiment: Fluoroscopic video-radiography of taking a barium-filled No. 2 capsule, mouth to stomach
Type: in vivo
Conditions: patient with difficulty in swallowing; barium-filled No. 2 capsule with about 20 ml of drink
Procedure: First, the purpose of this test was explained to a patient (the person) who had difficulty in swallowing when taking medicines with water, and their consent was acquired.
Next, barium powder was filled up in a No. 2 capsule and the capsule was used as a placebo. The placebo was taken by the patient with about 20 ml of the swallowing-assistive drink of the present invention, while fluoroscopic video-radiographs of the conditions of taking this medicine were taken by scanning from the mouth to the stomach of the patient. The image information obtained was put into a personal computer and the time-course changes were analyzed as still image data of two sheets a second.

With O [water] the “time to move from the mouth to the stomach” value was “about 18 sec”.
